Experimental data as given in patent US11613556B2, “Oxysterols and methods of use thereof” (Sage Therapeutics, Inc., priority 2016, dated 2023).

target: glutamate-activated channels of the GRIN1/2A subtype stably transfected in HEK 293 cells (Homo sapiens (Human), UniProt Q05586+Q12879); experiment: Automated patch-clamp system (QPatch HTX), percent potentiation at 1 μM; type: cell-based; conditions: HEK293, 1 μM test compound, 300 μM NMDA with 8 μM glycine, HEK 293 GRIN1/2A, read-out: GluN2A PCA % potentiation at 1 μM
Experimental: NMDA potentiation in mammalian cells which expressed NMDA receptors was assessed using the automatic patch-clamp system can be used determine the NAM activity of compounds as described below. An whole cell patch-clamp system can be used determine the PAM activity of compounds as described below.
Automated Patch-Clamp System (OPatch HTX):
In this study, HEK 293 cells stably transfected with glutamate-activated channels of the GRIN1/2A subtype will be used together with submaximal NMDA concentrations (300 μM NMDA, co-application with 8 μM Glycine) to investigate the negative allosteric modulation of the test compounds.
In general, cells will be passaged at a confluence of about 80% to […]. For electrophysiological measurements cells will be harvested at a confluence of about 80% to 90% from sterile culture flasks containing culture complete medium. Cells will be transferred as suspension in PBS to the QPatch 16X or QPatch HTX system to the centrifuge/washer directly.
Standard Laboratory Conditions: Cells will be incubated at 37° C. in a humidified atmosphere with 5% CO2 (rel. humidity about 95%).
Culture media: The cells will be continuously maintained in and passaged in sterile culture flasks containing a 1:1 mixture of Dulbecco's modified eagle medium and nutrient mixture F-12 (D-MEM/F-12 1×, liquid, with L-Glutamine) supplemented with 10% fetal bovine serum, 1% Penicillin/Streptomycin solution, and 50 μM AP-5 blocker.
Antibiotics: The complete medium as indicated above is supplemented with 100 μg/mL hygromycin, 15 μg/mL blasticidin and 1 μg/mL puromycin.
Induction of Expression: 2.5 μg/mL tetracycline is added 24 h before start of experiments.
Dose levels are in terms of test compounds, as supplied. Vehicle will be added to achieve a stock concentration of 10 mM (storage at −10° C. to −30° C.). A further stock solutions of 1.0 mM will be prepared in DMSO. Details of stock solution usage (thawing, dose formulations) will be documented in the raw data. The time period of stock solution usage will be detailed in the report.
Test Compound Concentrations
One test concentration of 1.0 μM will be tested.
All test solutions will be prepared by diluting the stock solutions with either Mg-free bath solution only or Mg-free bath solution containing NMDA (300 μM) and glycine (8.0 μM) shortly prior to the electrophysiological experiments and kept at room temperature (19° C. to 30° C.) when in use. 0.1% DMSO will be used as vehicle.
Frequency of preparation: For each test concentration, fresh solutions of test compounds will be prepared every day.
Stability of dose formulation: All preparation times will be documented in the raw data. Any observations regarding instability of test compounds will be mentioned in the raw data.
Storage of dose formulation: On the day of experimentation dose formulations will be maintained at room temperature (19° C. to 30° C.) when in use.
For preparing the experiments and for formation of the giga-ohm-seal, the following standard bath solution will be used:
Sodium Chloride: 137 mM; Potassium Chloride: 4 mM; Calcium Chloride: 1.8 mM; Magnesium Chloride: 1 mM; HEPES: 10 mM; D-Glucose: 10 mM; Cremophor: 0.02%; pH (NaOH): 7.4
The 1× bath solution will be prepared by diluting 10× bath solution without Glucose and 100× Glucose solution with water at least every 7 days. Both stock solutions have been prepared prior to the experimental start of the present study and stored at 1° C. to 9° C. (10× bath solution) or −10° C. to −30° (100× Glucose solution). The batch number(s) of the bath solution(s) used in the experiments will be documented in the raw data. When in use, the 1× bath solution will be kept at room temperature (19° C. to 30° C.). When not in use, the 1× bath solution will be stored at 1° C. to 9° C.
After the giga-seal was formed the following Mg-free bath solution will be used:
Sodium Chloride: 137 mM; Potassium Chloride: 4 mM; Calcium Chloride; 2.8 mM; HEPES: 10 mM; D-Glucose: 10 mM; Cremophor: 0.02%; pH (NaOH): 7.4 […]

glutamate-activated channels of the GRIN1/2A subtype stably transfected in HEK 293 cells, sequence (Q12879 whole entry, looked up, other chains not shown): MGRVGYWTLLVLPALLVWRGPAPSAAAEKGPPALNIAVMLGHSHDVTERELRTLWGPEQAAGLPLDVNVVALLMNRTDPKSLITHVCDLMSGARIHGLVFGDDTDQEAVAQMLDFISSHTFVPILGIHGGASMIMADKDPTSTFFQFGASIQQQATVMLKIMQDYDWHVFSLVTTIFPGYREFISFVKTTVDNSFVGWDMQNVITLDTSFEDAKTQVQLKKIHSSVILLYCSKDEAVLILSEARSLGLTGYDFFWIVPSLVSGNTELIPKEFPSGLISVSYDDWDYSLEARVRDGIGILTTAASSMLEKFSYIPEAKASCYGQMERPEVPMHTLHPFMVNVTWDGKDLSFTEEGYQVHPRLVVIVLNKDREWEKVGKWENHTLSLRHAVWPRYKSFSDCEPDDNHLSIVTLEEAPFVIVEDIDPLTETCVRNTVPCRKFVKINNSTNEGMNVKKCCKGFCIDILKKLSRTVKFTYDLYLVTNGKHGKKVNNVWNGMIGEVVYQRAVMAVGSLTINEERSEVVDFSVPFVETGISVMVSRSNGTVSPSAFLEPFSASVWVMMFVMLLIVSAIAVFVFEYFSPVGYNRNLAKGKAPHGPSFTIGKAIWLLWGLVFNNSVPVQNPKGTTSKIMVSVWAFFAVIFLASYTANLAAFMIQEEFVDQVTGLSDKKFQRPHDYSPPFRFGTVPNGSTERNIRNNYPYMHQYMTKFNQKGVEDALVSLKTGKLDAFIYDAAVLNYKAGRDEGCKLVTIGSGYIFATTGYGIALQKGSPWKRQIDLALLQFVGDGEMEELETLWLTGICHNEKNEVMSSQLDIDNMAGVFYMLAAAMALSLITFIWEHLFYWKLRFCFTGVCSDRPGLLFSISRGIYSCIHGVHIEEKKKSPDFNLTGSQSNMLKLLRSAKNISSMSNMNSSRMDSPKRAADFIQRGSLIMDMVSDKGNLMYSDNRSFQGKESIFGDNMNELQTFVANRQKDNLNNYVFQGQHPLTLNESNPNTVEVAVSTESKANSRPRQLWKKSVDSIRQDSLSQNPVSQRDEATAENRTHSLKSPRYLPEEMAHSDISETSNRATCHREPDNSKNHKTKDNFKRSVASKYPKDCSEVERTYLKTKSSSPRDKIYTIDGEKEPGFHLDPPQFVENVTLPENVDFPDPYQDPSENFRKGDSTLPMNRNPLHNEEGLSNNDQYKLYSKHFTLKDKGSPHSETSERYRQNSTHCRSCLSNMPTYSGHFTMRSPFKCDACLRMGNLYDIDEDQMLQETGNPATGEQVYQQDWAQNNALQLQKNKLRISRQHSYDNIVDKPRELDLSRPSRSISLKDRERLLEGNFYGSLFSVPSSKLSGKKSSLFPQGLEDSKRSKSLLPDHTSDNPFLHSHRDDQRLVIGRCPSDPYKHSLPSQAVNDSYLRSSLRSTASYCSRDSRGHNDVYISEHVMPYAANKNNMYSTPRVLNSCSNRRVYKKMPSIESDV

| SMILES | activation at 1 µM |
| --- | --- |
| CC[C@H](O)[C@@H](C)[C@H]1CC[C@H]2[C@@H]3CC[C@H]4C[C@](O)(CC)CC[C@]4(C)[C@H]3CC[C@]12C [Compound 21, (3S,5S,8R,9S,10S,13S,14S,17R)-3-ethyl-17-((2S,3S)-3-hydroxypentan-2-yl)-10,13-dimethylhexadecahydro-1H-cyclopenta[a]phenanthren-3-ol] | -40 to -10% |
| C[C@@H]([C@H]1CC[C@H]2[C@@H]3CC[C@H]4C[C@](O)(C(F)(F)F)CC[C@]4(C)[C@H]3CC[C@]12C)[C@@H](C)O [Compound 22, (3S,5S,8R,9S,10S,13S,14S,17R)-17-((2S,3R)-3-hydroxybutan-2-yl)-10,13-dimethyl-3-(trifluoromethyl)hexadecahydro-1H-cyclopenta[a]phenanthren-3-ol] | -10 to 10% |
| COC[C@]1(O)CC[C@@]2(C)C(=CC[C@H]3[C@@H]4CC[C@H]([C@H](C)[C@H](O)C(F)(F)F)[C@@]4(C)CC[C@@H]32)C1 [Compound 39, (3S,8S,9S,10R,13S,14S,17R)-3-(methoxymethyl)-10,13-dimethyl-17-((2S,3S)-4,4,4-trifluoro-3-hydroxybutan-2-yl)-2,3,4,7,8,9,10,11,12,13,14,15,16,17-tetradecahydro-1H-cyclopenta[a]phenanthren-3-ol] | -40 to -10% |
| CC#CC[C@H](O)[C@@H](C)[C@H]1CC[C@H]2[C@@H]3CC[C@H]4C[C@](O)(CC)CC[C@]4(C)[C@H]3CC[C@]12C [Compound 41, (3S,5S,8R,9S,10S,13S,14S,17R)-3-ethyl-17-((2S,3S)-3-hydroxyhept-5-yn-2-yl)-10,13-dimethylhexadecahydro-1H-cyclopenta[a]phenanthren-3-ol] | -40 to -10% |
| CC[C@]1(O)CC[C@@]2(C)[C@H](CC[C@@H]3[C@@H]2CC[C@]2(C)[C@@H]([C@H](C)[C@@H](O)C(F)(F)F)CC[C@@H]32)C1 [Compound 43, (3S,5R,8R,9S,10S,13S,14S,17R)-3-ethyl-10,13-dimethyl-17-((2S,3R)-4,4,4-trifluoro-3-hydroxybutan-2-yl)hexadecahydro-1H-cyclopenta[a]phenanthren-3-ol] | < -40% |
| COC[C@]1(O)CC[C@H]2[C@H](CC[C@@H]3[C@@H]2CC[C@]2(C)[C@@H]([C@H](C)[C@@H](O)C(F)(F)F)CC[C@@H]32)C1 [Compound 45, (3S,5R,8R,9R,10S,13S,14S,17R)-3-(methoxymethyl)-13-methyl-17-((2S,3R)-4,4,4-trifluoro-3-hydroxybutan-2-yl)hexadecahydro-1H-cyclopenta[a]phenanthren-3-ol] | -40 to -10% |
| COC[C@]1(O)CC[C@H]2[C@H](CC[C@@H]3[C@@H]2CC[C@]2(C)[C@@H]([C@H](C)[C@H](O)C(F)(F)F)CC[C@@H]32)C1 [Compound 48, (3S,5R,8R,9R,10S,13S,14S,17R)-3-(methoxymethyl)-13-methyl-17-((2S,3S)-4,4,4-trifluoro-3-hydroxybutan-2-yl)hexadecahydro-1H-cyclopenta[a]phenanthren-3-ol] | -40 to -10% |
| CC[C@]1(O)CC[C@@]2(C)[C@@H](CC[C@@H]3[C@@H]2CC[C@]2(C)[C@@H]([C@H](C)[C@H](C)O)CC[C@@H]32)C1 [Compound 50, (3S,5S,8R,9S,10S,13S,14S,17R)-3-ethyl-17-((2S,3S)-3-hydroxybutan-2-yl)-10,13-dimethylhexadecahydro-1H-cyclopenta[a]phenanthren-3-ol] | -40 to -10% |
| C[C@H]([C@@H](O)C(F)(F)F)[C@H]1CC[C@H]2[C@@H]3CC=C4C[C@](O)(C(F)(F)F)CC[C@]4(C)[C@H]3CC[C@]12C [Compound 53, (3S,8S,9S,10R,13S,14S,17R)-10,13-dimethyl-17-((2S,3R)-4,4,4-trifluoro-3-hydroxybutan-2-yl)-3-(trifluoromethyl)-2,3,4,7,8,9,10,11,12,13,14,15,16,17-tetradecahydro-1H-cyclopenta[a]phenanthren-3-ol] | -40 to -10% |
| CC[C@]1(O)CC[C@@]2(C)[C@@H](CC[C@@H]3[C@@H]2CC[C@]2(C)[C@@H]([C@H](C)[C@@H](O)c4ccccc4)CC[C@@H]32)C1 [Compound 55, (3S,5S,8R,9S,10S,13S,14S,17R)-3-ethyl-17-((1R,2S)-1-hydroxy-1-phenylpropan-2-yl)-10,13-dimethylhexadecahydro-1H-cyclopenta[a]phenanthren-3-ol] | -40 to -10% |
| CC[C@]1(O)CC[C@@]2(C)[C@H](CC[C@@H]3[C@@H]2CC[C@]2(C)[C@@H]([C@H](C)[C@H](O)C(F)(F)F)CC[C@@H]32)C1 [Compound 56, (3S,5R,8R,9S,10S,13S,14S,17R)-3-ethyl-10,13-dimethyl-17-((2S,3S)-4,4,4-trifluoro-3-hydroxybutan-2-yl)hexadecahydro-1H-cyclopenta[a]phenanthren-3-ol] | < -40% |
| C[C@H]([C@@H](O)C(F)(F)F)[C@H]1CC[C@H]2[C@@H]3CC[C@@H]4C[C@@](C)(O)CC[C@]4(C)[C@H]3CC[C@]12C [Compound 57, (3S,5R,8R,9S,10S,13S,14S,17R)-3,10,13-trimethyl-17-((2S,3R)-4,4,4-trifluoro-3-hydroxybutan-2-yl)hexadecahydro-1H-cyclopenta[a]phenanthren-3-ol] | < -40% |
| CC[C@]1(O)CC[C@@]2(C)[C@@H](CC[C@@H]3[C@@H]2CC[C@]2(C)[C@@H]([C@H](C)[C@H](O)C4CCCC4)CC[C@@H]32)C1 [Compound 58, (3S,5S,8R,9S,10S,13S,14S,17R)-17-((1R,2S)-1-cyclopentyl-1-hydroxypropan-2-yl)-3-ethyl-10,13-dimethylhexadecahydro-1H-cyclopenta[a]phenanthren-3-ol] | -40 to -10% |
| CC[C@]1(O)CC[C@@]2(C)C(=CC[C@H]3[C@@H]4CC[C@H]([C@H](C)[C@@H](O)C(F)(F)F)[C@@]4(C)CC[C@@H]32)C1 [Compound 62, (3S,8S,9S,10R,13S,14S,17R)-3-ethyl-10,13-dimethyl-17-((2S,3R)-4,4,4-trifluoro-3-hydroxybutan-2-yl)-2,3,4,7,8,9,10,11,12,13,14,15,16,17-tetradecahydro-1H-cyclopenta[a]phenanthren-3-ol] | -40 to -10% |
| CC[C@]1(O)CC[C@@]2(C)[C@H](CC[C@@H]3[C@@H]2CC[C@]2(C)[C@@H]([C@H](C)[C@@H](O)CCC(C)C)CC[C@@H]32)C1 [Compound 64, (3S,5R,8R,9S,10S,13S,14S,17R)-3-ethyl-17-((2S,3S)-3-hydroxy-6-methylheptan-2-yl)-10,13-dimethylhexadecahydro-1H-cyclopenta[a]phenanthren-3-ol] | -40 to -10% |
| CC[C@]1(O)CC[C@@]2(C)[C@@H](CC[C@@H]3[C@@H]2CC[C@]2(C)[C@@H]([C@H](C)[C@@H](O)C(C)C)CC[C@@H]32)C1 [Compound 65, (3S,5S,8R,9S,10S,13S,14S,17R)-3-ethyl-17-((2S,3S)-3-hydroxy-4-methylpentan-2-yl)-10,13-dimethylhexadecahydro-1H-cyclopenta[a]phenanthren-3-ol] | -40 to -10% |
